Data set [1] deals with P. aeruginosa. Description: MIC against P. aeruginosa (strain not given). It counts as cell-based, Pseudomonas aeruginosa. An excerpt:
FIGS. 2A-2E. Design, physicochemical features and activity of Pol-CP—NH2 and Ala-scan analogs. FIG. 2A. Theoretical physicochemical properties of interest of the wild type and Ala-scan analogs, where H denotes hydrophobicity, μH is the hydrophobic moment, q represents the net charge and P/N is the ratio of polar/non-polar residues in the sequence. Top to bottom, left to right the sequences correspond to SEQ ID NOs: 1-13. FIG. 2B. Schematic of the in vitro biological activity experimental design. Briefly, 10^4 bacterial cells and serially diluted peptides (0-128 μmol L^−1) were added to a 96-well plate and incubated at 37° C. One day after the exposure, the solution in each well was measured in a microplate reader (600 nm) to check inhibition of bacteria compared to the untreated controls and presented as heat maps of antimicrobial activities (μmol L^−1) against four bacteria strains: E. coli strain BL21, S. aureus strain ATCC12600 and P. aeruginosa strains PA01, and PA14. Assays were performed in triplicates. FIG. 2C. Graph correlating MIC (μmol L^−1) averages vs H and (FIG. 2D) MIC (μmol L^−1) averages vs μH, where dots […] the dashed line show peptides with higher activity compared to the wild type, in which one can observe ranges of optimal activity in determined intervals of H and μH values. FIG. 2E. […]

The nature of data set [2]: Mouse body weight / toxicity in the skin infection model. Particulars: for mouse body weight: peptides used at 64 mol L^−1 (so in the source), compared to untreated mice. In kind it is in vivo, mice. How it is done: FIGS. 8A-8D. In vivo activity of Pol-CP—NH2 and its analogs. FIG. 8A. Schematic of the experimental design. Briefly, the back of mice was shaved and an abrasion was generated to damage the stratum corneum and the upper layer of the epidermis. Subsequently, an aliquot of 50 μL containing 5×10^7 CFU of P. aeruginosa in PBS was inoculated over each defined area. One day after the infection, peptides (4 μmol L^−1) were administered to the infected area. Animals were euthanized and the area of scarified skin was excised two and four days post-infection (FIG. 8B) homogenized using a bead beater for 20 minutes (25 Hz), and serially diluted for CFU quantification (****p<0.0001). FIG. 8C. Mouse body weight measurements throughout the experiment normalized by the body weight of non-infected mice. […] FIG. 8D. Longer experiment (four days) using a higher concentration (64 μmol L^−1) of peptides Pol-CP—NH2 and [Lys]'-Pol-CP—NH2 (****p<0.0001).
Scarification Skin Infection Mouse Model. P. aeruginosa strain PA14 was grown to an optical density at 600 nm (OD600) of 1 in tryptic soy broth (TSB) medium. Subsequently cells were washed twice with sterile PBS (pH 7.4, 13,000 rpm for 1 minute), and resuspended to a final concentration of 5×10^7 CFU/50 ? L. To generate skin infection, female CD-1 mice (6 weeks old) were anesthetized with isoflurane and had their backs shaved. A superficial linear skin abrasion was made with a needle in order to damage the stratum corneum and upper-layer of the epidermis. Five minutes after wounding, an aliquot of 50 ? L containing 5×10^7 CFU of bacteria in PBS was inoculated over each defined area containing the scratch with a pipette tip. One day after the infection, peptides were administered to the infected area. Animals were euthanized and the area of scarified skin was excised two and four days post-infection, homogenized using a bead beater for 20 minutes (25 Hz), and serially diluted for CFU quantification. Two independent experiments were performed with 4 mice per group in each condition. Statistical significance was assessed using a one-way ANOVA.

For data set [3], the system named is HEK293 human embryonic kidney cells. Put plainly: Cytotoxicity assay (MTS). The settings on record: for toxicity at 64 μmol L^−1: assay not stated; for Cytotoxicity: HEK293, 48 h, MTS, peptides 0-64 μmol L^−1. In kind it is cell-based. How it is done: FIGS. 7A-7B. Cytotoxicity of engineered peptides. FIG. 7A. Schematic of the experimental design for cytotoxicity assays of Pol-CP—NH2 and derivatives against HEK293 human embryonic kidney cells. Briefly, cells were cultured in DMEM medium supplemented with FBS and antibiotics at 37° C. and 5% CO2. FIG. 7B. Results obtained by seeding HEK293 50,000 cells and incubating with peptides' solution (0-64 μmol L^−1) at 37° C. for 48 h. Cell viability was measured by MTS assay. All experiments were performed in triplicate.
Cytotoxicity assays. Human embryonic kidney 293 (HEK 293) cells were cultured in Dulbecco's Modified Eagle Medium (DMEM) supplemented with 10% Fetal Bovine Serum (FBS) and 1% penicillin-streptomycin at 37° C. in 5% CO2. The day before treatment, 50,000 HEK 293 cells were seeded into each well in 96-well plates. The peptides were added at concentrations ranging from 0 to 64 ? mol L^−1 and 48 h after exposure, cell viability was measured by means of MTS (dimethylthiazol-carboxymethoxyphenyl-sulfophenyl-tetrazolium) assay. Experiments were performed in triplicate for each condition.

Take “H-ILGTILGLLKSL-NH2 [WT, ILGTILGLLKSL-NH2, reference compound]”: in data set [1] (strain not stated), the “MIC against P. aeruginosa” value worked out at 64 µM. The mouse body weight result in data set [2] is given as “did not change significantly”. Further, the “toxicity at 64 μmol L^−1” value in data set [3] is recorded as “toxic”. Moreover, the Cytotoxicity in data set [3] amounted to 32.0 µmol/L; in data set [3] (listed as wild-type peptide), 32 µmol/L.
For “H-ILGTILKLLKSL-NH2 [Peptide 16, ILGTILKLLKSL-NH2]”, in data set [1] (in vitro, selection of peptides for the mouse model), the “activity against P. aeruginosa” value was “high activity”. The mouse body weight entry in data set [2] is on record as “did not change significantly”. The “toxicity to mice” value in data set [2] (single dose) is “non-toxic”. Besides, in data set [3], the “toxicity at 64 μmol L^−1” value is given as “toxic” and the Cytotoxicity was 16.0 µmol/L. Besides, in data set [3] (listed as [Lys]^7-Pol-CP—NH2), the Cytotoxicity is 16 µmol/L. Also, the “cytotoxic concentration relative to MIC against P. aeruginosa” value in data set [3] (HEK293 cytotoxicity vs MIC) was “two- to four-fold higher”.

(Values after patent publication US20210347823A1, “METHODS OF PHYSICOCHEMICAL-GUIDED PEPTIDE DESIGN AND NOVEL PEPTIDES DERIVED THEREFROM” (Massachusetts Institute of Technology, priority 2018, published 2021).)
